The values below come from patent publication EP0617288B1, “Long emission wavelength chemiluminescent compounds and their use in test assays” (Novartis AG, priority 1993, dated 1994).

Molecules are shown by their SMILES.

Data set [1] is described as follows: Light emission spectra by Fast Spectral Scanning System (FSSS). The class given is physicochemical. The settings on record: for emission spectrum peak: figure legends FIGS. 2A-2E, 3A-3J; for Emission Max: in 0.5 ml acetonitrile, Flashing Reagent #1 and #2, maximum could vary by 0-4 nm between determinations; for Range: spectral region with signal intensity of above 5% of peak height. The procedure:
The light emission spectra of LBAC's and the reference acridinium esters were determined by a Fast Spectral Scanning System (FSSS) of Photo Research (a division of Kollmorgen Corp) of Burbank, CA, U.S.A. The experiment was carried out in a dark room. Each sample was dissolved in HPLC grade acetonitrile at the concentration of 1 mg/ml or higher and diluted with the same solvent to obtain the sample solution in the concentration specified. A typical determination utilized 10 to 100 ug of each compound, with the exception of the angular benz[a]acridinium ester (2 mg), separately or mixed together in 0.5 ml acetonitrile contained in 13 x 100 mm borosilicate test tube. The tube was placed on a tube rack raised to a proper height. The FSSS optical head was placed in front of the tube at close distance and with its lens focused on the liquid in the tube. The sample solution was first treated with 0.35 ml of the Flashing Reagent #1 (Ciba Corning Diagnostics) containing 0.1 N HNO3 and 0.1% H2O2. […] The light which was generated instantaneously following the addition of the Reagent #2 was recorded by FSSS for 4 seconds except for 2-MeO-LEAE-Imidate which was recorded for 30 seconds starting from split second before the Reagent #2 was added.
Recorded emission spectra are shown in FIGS. 2A-2E, 3A-3J, and 4A-4D. FIGS. 2A-2E and 3A-3J show individual emission spectra of chemiluminescent compounds including an acridinium ring system and compounds including a benzacridinium ring system. […] The major portions of the original constituting spectra which remained unchanged were indeed non-overlapping. These important physical characteristics fulfill the prerequisite for two or more subclasses of chemiluminescent compounds to be utilized in test assays for detecting and/or quantitating at least two substances in a test sample, and particularly to multianalyte clinical diagnostic assays.

A short description of data set [2]: Kinetic study on light emission (time course up to 10 seconds). The data set is classed as physicochemical. The settings on record: normalized to 10 seconds. The method, then: A time course study over a period of up to 10 seconds was conducted to determine these percentages, by flashing the compounds and normalizing all the signals collected for different lengths of time to that of 10 seconds.

As to `COc1ccc2c(c1)c(C(=O)Oc1c(C)cc(C(=O)OCc3ccccc3)cc1C)c1cc3ccccc3cc1[n+]2C` [2-MeO-LEAE-Bz, (4-Benzyloxycarbonyl-2,6-dimethyl)phenyl 2-Methoxy-5-methyl-benz[b]acridinium-12-carboxylate Fluorosulfonate], the emission spectrum peak result in data set [1] is given as “≈ 550 nm”. For the same molecule, in data set [1], the “Emission Max” value came to 550 nm. Besides, the Range in data set [1] is listed as 510-700 nm. For the same molecule, the “Percent signal released over different lengths of time” value is reported as 16% in data set [2] (0.5 s); 42% in data set [2] (1.0 s); 65% in data set [2] (2.0 s); 83% in data set [2] (4.0 s); 92% in data set [2] (6.0 s); 100% in data set [2] (10.0 s).

On to `COc1ccc2c(c1)c(C(=O)Oc1c(C)cc(C(=O)ON3C(=O)CCC3=O)cc1C)c1cc3ccccc3cc1[n+]2CCS(=O)(=O)[O-]` [2-MeO-NSE-LEAE-NHS, (2,6-Dimethyl-4-N-succinimidyloxycarbonyl)phenyl 2-Methoxy-5-(2-sulfoethyl)-benz[b]acridinium-12-carboxylate], for which the emission spectrum peak result in data set [1] was “≈ 546 nm”. In data set [1], the “Emission Max” value was 546 nm. For the same molecule, the Range in data set [1] is 500-700 nm. The “Percent signal released over different lengths of time” value in data set [2] (0.5 s) amounted to 22%; in data set [2] (1.0 s) it was 58%; in data set [2] (2.0 s), 79%; in data set [2] (4.0 s), 90%; in data set [2] (6.0 s) it was 96%; in data set [2] (10.0 s), 100%.

In the case of `Cc1cc(C(=O)ON2C(=O)CCC2=O)cc(C)c1OC(=O)c1c2cc(OCC[N+](C)(C)C)ccc2[n+](C)c2cc3ccccc3cc12` [2-QAE-LEAE-NHS, (2,6-Dimethyl-4-succinimidyloxycarbonyl)phenyl 5-Methyl-2-(trimethylammonium)ethoxy-benz[b]acridinium-12-carboxylate Difluorosulfonate], the emission spectrum peak entry in data set [1] is recorded as “≈ 550 nm”. In addition, the “Emission Max” value in data set [1] turned out to be 550 nm. For the same molecule, the Range in data set [1] was 510-700 nm. The “Percent signal released over different lengths of time” value was determined as 9% in data set [2] (0.5 s); 37% in data set [2] (1.0 s); 59% in data set [2] (2.0 s); 76% in data set [2] (4.0 s); 88% in data set [2] (6.0 s); 100% in data set [2] (10.0 s).

Consider `CCOc1ccc2c(C(=O)Oc3c(C)cc(C(=O)OCc4ccccc4)cc3C)c3cc4ccccc4cc3[n+](C)c2c1` [3-EtO-LEAE-Bz, (4-Benzyloxycarbonyl-2,6-dimethyl)phenyl 3-Ethoxy-5-methyl-benz[b]acridinium-12-carboxylate Fluorosulfonate], for which the emission spectrum peak result in data set [1] is recorded as “≈ 508 nm”. The “Emission Max” value in data set [1] is 508 nm. In addition, the Range in data set [1] was 470-660 nm. The “Percent signal released over different lengths of time” value came to 45% in data set [2] (0.5 s); 78% in data set [2] (1.0 s); 85% in data set [2] (2.0 s); 93% in data set [2] (4.0 s); 95% in data set [2] (6.0 s); 100% in data set [2] (10.0 s).

Turning to `COc1ccc2c(C(=O)Oc3c(C)cc(C(=O)OCc4ccccc4)cc3C)c3ccccc3[n+](C)c2c1` [3-MeO-DMAE-Bz, (4-Benzyloxycarbonyl-2,6-dimethyl)phenyl 3-Methoxy-10-methyl-acridinium-9-carboxylate Fluorosulfonate, reference compound], in data set [1], the emission spectrum peak result was “≈ 422 nm”. The “Emission Max” value in data set [1] came out at 422 nm. The Range in data set [1] was 395-520 nm. Also, the “Percent signal released over different lengths of time” value in data set [2] (0.5 s) is on record as 26%; in data set [2] (1.0 s), 49%; in data set [2] (2.0 s) it was 57%; in data set [2] (4.0 s) it was 70%; in data set [2] (6.0 s), 80%; in data set [2] (10.0 s), 100%.

On to `Cc1cc(C(=O)OCc2ccccc2)cc(C)c1OC(=O)c1c2ccccc2[n+](C)c2ccc3ccccc3c12` [ABAC, (4-Benzyloxycarbonyl-2,6-dimethyl)phenyl 5-methyl-benz[a]acridinium-12-carboxylate methosulfate, reference compound], for which the emission spectrum peak result in data set [1] is “≈ 440 nm”. For the same molecule, the “Emission Max” value in data set [1] is reported as 436-440 nm. In addition, the Range in data set [1] was 410-530 nm. The “difference of the emission maxima” value in data set [1] (versus acridinium esters) was 8-14 nm. For the same molecule, the “Percent signal released over different lengths of time” value in data set [2] (0.5 s) is recorded as 3%; in data set [2] (1.0 s), 20%; in data set [2] (2.0 s), 52%; in data set [2] (4.0 s), 73%; in data set [2] (6.0 s), 89%; in data set [2] (10.0 s), 100%.

For `CC(C)c1cc(C(=O)OCc2ccccc2)cc(C(C)C)c1OC(=O)c1c2ccccc2[n+](C)c2cc3ccccc3cc12` [DIP-LEAE-Bz, (4-Benzyloxycarbonyl-2,6-diisopropyl)phenyl 5-Methyl-benz[b]acridinium-12-carboxylate Fluorosulfonate], the emission spectrum peak entry in data set [1] is given as “≈ 520 nm”. Besides, the “Emission Max” value in data set [1] worked out at 520 nm. Also, the Range in data set [1] is given as 485-670 nm. The “Percent signal released over different lengths of time” value is listed as 4% in data set [2] (0.5 s); 26% in data set [2] (1.0 s); 47% in data set [2] (2.0 s); 67% in data set [2] (4.0 s); 80% in data set [2] (6.0 s); 100% in data set [2] (10.0 s).

With `COc1ccc(N(C(=O)c2c3ccccc3[n+](C)c3cc4ccccc4cc23)S(=O)(=O)c2cccc(C(=O)OCc3ccccc3)c2)cc1` [LEAC-Bz, N-(4-Methoxyphenyl)-N-[3-(benzyloxycarbonyl)phenylsulfonyl] 5-Methyl-benz[b]acridinium-12-carboxamide Fluorosulfonate], in data set [1], the emission spectrum peak entry was “≈ 520 nm”. The “Emission Max” value in data set [1] was 520 nm. The Range in data set [1] was 485-670 nm. The “Percent signal released over different lengths of time” value in data set [2] (0.5 s) came to 73%; in data set [2] (1.0 s), 82%; in data set [2] (2.0 s), 93%; in data set [2] (4.0 s) it was 98%; in data set [2] (6.0 s) it was 102%; in data set [2] (10.0 s), 100%.

For the molecule `Cc1cc(C(=O)OCc2ccccc2)cc(C)c1OC(=O)c1c2ccccc2[n+](C)c2cc3ccccc3cc12` [LEAE-Bz, (4-Benzyloxycarbonyl-2,6-dimethyl)phenyl 5-Methyl-benz[b]acridinium-12-carboxylate Fluorosulfonate], the emission spectrum peak entry in data set [1] is given as “≈ 520 nm”. Moreover, in data set [1], the “Emission Max” value is on record as 520-524 nm. Also, the Range in data set [1] is given as 490-670 nm. Besides, the “Percent signal released over different lengths of time” value in data set [2] (0.5 s) was 27%; in data set [2] (1.0 s), 71%; in data set [2] (2.0 s), 88%; in data set [2] (4.0 s) it was 97%; in data set [2] (6.0 s), 98%; in data set [2] (10.0 s) it was 100%.

As for `Cc1cc(C(=O)OCc2ccccc2)cc(C)c1OC(=O)c1c2ccccc2[n+](CCCS(=O)(=O)[O-])c2cc3ccccc3cc12` [NSP-LEAE-Bz, (4-Benzyloxycarbonyl-2,6-dimethyl)phenyl 5-(3-Sulfopropyl)-benz[b]acridinium-12-carboxylate], in data set [1], the emission spectrum peak result is given as “≈ 516 nm”. Also, the “Emission Max” value in data set [1] came to 516 nm. Further, in data set [1], the Range is 482-655 nm. For the same molecule, the “Percent signal released over different lengths of time” value is on record as 14% in data set [2] (0.5 s); 72% in data set [2] (1.0 s); 91% in data set [2] (2.0 s); 96% in data set [2] (4.0 s); 95% in data set [2] (6.0 s); 100% in data set [2] (10.0 s).
